Read-outs that look alike come from different tables or passages of the source.
How the values were obtained:
MEF-Zellen = test: Effect on vitality of other cells by incubation (MEF); assay type: cell-based; details: no influence on vitality up to this concentration
Method: (§1) Die Wirkung des Beispiels 2 auf andere Zellen wurde durch Inkubation von HEL-, MEF-Zellen getestet. Es zeigte sich keine Beeinflussung der Vitalität dieser Zellen bis zu einer Konzentration von 250 µM.

HEL-Zellen = test: Effect on vitality of other cells by incubation (HEL); assay type: cell-based; details: no influence on vitality up to this concentration
Method: as §1

Hepatitis B Virus (HBV) = test: HBV test system in HBV-DNA-transfected hepatoma cells (HEP G2.2.15): HBV DNA in supernatant, HBsAg ELISA; assay type: cell-based; details: read-out: IC₅₀
From the text: Es wurde überraschend gefunden, daß die erfindungsgemäßen Verbindungen der allgemeinen Formel (I) eine außerordentlich starke spezifische Wirkung gegen das Heptatitis B Virus (HBV) besitzen. Der Nachweis wurde in mit Hepatitis B Virus DNA transfizierten Hepatomzellen (HEP G2.2.15) geführt.
Die Ergebnisse der unten aufgeführten Beispiele wurden zu dem in der folgenden Literaturangabe [Sells, M.A.; Chen, M.L., Acs, G., Proc. Natl. Acad. Sci. USA S. 1005 - 1009, Vol. 84 (1987)] beschriebenen HBV Testsystem ermittelt: Transfizierte Hepatomzellen (HEP G2.2.15) wurden mit verschiedenen Konzentrationen an der jeweiligen Verbindung inkubiert. Durch Behandlung der transfizierten Hepatomzellinie HEP G2.2.15 mit den erfindungsgemäßen Verbindungen konnte das […] der virusspezifischen HBV DNA im Überstand sowie eine Reduktion des HBsAg Spiegels gezeigt werden. Es wurde weiter gefunden, daß die erfindungsgemäßen Verbindungen zu einer Reduktion der replikativen Intermediate der Hepatitisviren führen. Im Überstand der Zellkulturen wurde nach PEG Fällung der Gehalt an HBV DNA bestimmt. Dies geschah unter Verwendung einer nicht radioaktiv markierten HBV genomischen DNA Probe [Pauly, P., 1982, P.H.D. Thesis, University of Göttingen, F.R.G.; Köchel et al., 1990, EMBL, Accession-Nr. X 51790]. Gleichzeitig erfolgte der Nachweis der Beeinflussung der HBsAg Bildung mittels eines kommerziell erhältlichen Elisa Tests. Die angegebenen IC₅₀-Werte beziehen sich auf die Substratkonzentrationen, die unter den oben aufgeführten Testbedingungen eine 50%ige Hemmung der HBV DNA Konzentration im Überstand bewirken.

[1] = Water solubility (qualitative remark on the lyophilisate); assay type: physicochemical; details: lyophilisate of the sodium salt
[2] = HEP G2.2.15 cells, concentration giving 50% inhibition of HBV DNA concentration in supernatant

## O=c1[nH]c(=O)n([C@H]2CC[C@@H](CO)O2)cc1C(F)(F)F [Beispiel 2, β-2',3'-Didesoxy-5-(trifluormethyl)-uridin]
MEF-Zellen
  Beeinflussung der Vitalität dieser Zellen: > 250 µM
HEL-Zellen
  Beeinflussung der Vitalität dieser Zellen: > 250 µM
Hepatitis B Virus (HBV); [2]
  IC50: 0.01 nM

## O=c1[nH]c(=O)n([C@H]2CC[C@@H](CO)O2)cc1C(F)(F)F.[Na] [Beispiel 12, β-2',3'-Didesoxy-5-(trifluormethyl)-uridin-natriumsalz]
[1]
  Wasserlöslichkeit: gut wasserlösliches

## Nc1ncnc2c1ncn2[C@H]1CC[C@@H](CO)O1 [DDA, reference compound]
Hepatitis B Virus (HBV); reference substances in the same test system (HEP G2.2.15, HBV DNA in supernatant)
  IC50: > 100000 nM

## Nc1ccn([C@H]2CC[C@@H](CO)O2)c(=O)n1 [DDC, 2',3'-Didesoxy-cytidin, reference compound]
Hepatitis B Virus (HBV); Hepatitis B virus, HepG2.2.15, reference substances in the same test system (HEP G2.2.15, HBV DNA in supernatant)
  IC50: 5000 nM

## β-5'-(1-Ethoxycarbonyloxy-eth-1-yl)-2',3'-didesoxy-5-(trifluormethyl)-uridin [Beispiel 5]
Hepatitis B Virus (HBV); [2]
  IC50: > 0.25 nM

Source: patent publication EP0507188A1, “Substituted 2',3'-dideoxy-5-trifluoromethyluridines, method of their preparation and their use in medicaments” (BAYER AG, priority 1991, dated 1992)
